According to article PMC6009955, “Synthesis of new pyridothienopyrimidinone and pyridothienotriazolopyrimidine derivatives as pim-1 inhibitors” (Journal of Enzyme Inhibition and Medicinal Chemistry, 2017):
Where two headings read alike, the source gives them in different places.

What was measured:
pim-2 = settings: cited from earlier work
pim-1 = settings: cited from earlier work
[1] = target: T1, Human proto-oncogene serine/threonine-protein kinase pim-1 (PIM1) (Homo sapiens, UniProt P11309); assay: Pim-1 kinase inhibitory activity (PIM1 ELISA kit); type: biochemical; settings: for inhibition at 25 µM: read-out: % Inhibition at 25µM; for IC50: tested at 0.2, 1, 5 and 25 µM
T1 construct: purchased MBS7573
T1 sequence (P11309 whole entry): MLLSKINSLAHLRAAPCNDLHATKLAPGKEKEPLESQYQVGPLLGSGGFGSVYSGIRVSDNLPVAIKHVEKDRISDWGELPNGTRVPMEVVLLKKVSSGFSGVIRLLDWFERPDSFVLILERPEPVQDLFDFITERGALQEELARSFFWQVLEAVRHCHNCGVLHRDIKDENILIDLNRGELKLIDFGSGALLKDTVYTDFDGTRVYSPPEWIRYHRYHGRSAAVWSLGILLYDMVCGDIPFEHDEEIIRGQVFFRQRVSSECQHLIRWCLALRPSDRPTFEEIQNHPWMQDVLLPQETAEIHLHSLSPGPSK
Protocol: The kinase inhibitory activity of the synthesised compounds was determined using Human proto-oncogene serine/threonine-protein kinase pim-1 (PIM1) ELISA Kit (catalog #MBS7573). All the compounds were tested for their inhibitory activity against pim-1 kinase at 0.2, 1, 5 and 25 µM using Staurosporine as a reference standard.

[2] = test system: human colon adenocarcinoma (HCT116); assay: In vitro cytotoxic activity, MTT method, HCT116; type: cell-based; settings: 48 h incubation, means of three experiments
Protocol: Cell line cells were obtained from American Type Culture Collection (ATCC, Manassas, VA). The cell lines used in this study were human breast adenocarcinoma (MCF7) and human colon adenocarcinoma (HCT116). The cells were cultured using DMEM (Invitrogen/Life Technologies) supplemented with 10% FBS (Hyclone), 10 µg/mL insulin (Sigma) and 1% penicillin-streptomycin. All of the other chemicals and reagents were from Sigma or Invitrogen. […] The culture medium was removed to a centrifuge tube. The cell layer was rinsed with 0.25% (w/v) Trypsin 0.53 mM EDTA solution to remove all traces of serum which contains Trypsin inhibitor. Then, 2–3 ml of Trypsin EDTA solution was added and the cells were observed under an inverted microscope until the cell layer is dispersed (usually within 5–15 min.). A volume of 6 to 8 ml of complete growth medium was added and the cells were aspirated by gently pipetting. The cell suspension was transferred to the centrifuge tube with the culture medium and centrifuged at approximately 125 ×g for 5 to 10 min. The supernatant was discarded and the cells were suspended in fresh growth medium then incubated at 37 °C for 24 h. After treatment of the cells with the serial concentrations of the test compounds or the control Staurosporine in DMSO (at concentrations of 200, 100, 10, 1 and 0.1 µM), incubation was carried out for 48 h at 37 °C, then the plates were examined under the inverted microscope and proceeded for the MTT assay. The MTT method of monitoring in vitro cytotoxicity is well suited for use with multiwell plates. For best results, cells in the log phase of growth should be employed and final cell number should not exceed 10^6 cells/cm^2. Each test should include a blank containing complete medium without cells. Cell cultures were removed from the incubator into laminar flow hood. Each vial of MTT [M-5655] was reconstituted to be used with 3 ml of medium or balanced salt solution without phenol red and serum and the reconstituted MTT was added in an amount equal to 10% of the culture medium volume. Then the cultures were returned to the incubator for 2–4 h depending on the cell type and the maximum cell density. After the incubation period, the cultures were removed from incubator and the resulting formazan crystals were dissolved by adding an amount of MTT solvent (solubilisation solution) [M-8910] equal to the original culture medium volume. Gentle mixing in a gyratory shaker enhanced dissolution. Occasionally pipetting up and down [trituration] may be required to completely dissolve the MTT formazan crystals. The absorbance was measured at a wavelength of 450 nm using Bioline ELIZA reader. The background absorbance of the multiwell plates was measured at 690 nm and subtracted from the 450 nm measurement. […]

[3] = test system: human breast adenocarcinoma (MCF7); assay: In vitro cytotoxic activity, MTT method, MCF7; type: cell-based; settings: MCF-7, MTT, 48 h incubation, means of three experiments
Protocol: Cell line cells were obtained from American Type Culture Collection (ATCC, Manassas, VA). The cell lines used in this study were human breast adenocarcinoma (MCF7) and human colon adenocarcinoma (HCT116). The cells were cultured using DMEM (Invitrogen/Life Technologies) supplemented with 10% FBS (Hyclone), 10 µg/mL insulin (Sigma) and 1% penicillin-streptomycin. All of the other chemicals and reagents were from Sigma or Invitrogen. […] The culture medium was removed to a centrifuge tube. The cell layer was rinsed with 0.25% (w/v) Trypsin 0.53 mM EDTA solution to remove all traces of serum which contains Trypsin inhibitor. Then, 2–3 ml of Trypsin EDTA solution was added and the cells were observed under an inverted microscope until the cell layer is dispersed (usually within 5–15 min.). A volume of 6 to 8 ml of complete growth medium was added and the cells were aspirated by gently pipetting. The cell suspension was transferred to the centrifuge tube with the culture medium and centrifuged at approximately 125 ×g for 5 to 10 min. The supernatant was discarded and the cells were suspended in fresh growth medium then incubated at 37 °C for 24 h. After treatment of the cells with the serial concentrations of the test compounds or the control Staurosporine in DMSO (at concentrations of 200, 100, 10, 1 and 0.1 µM), incubation was carried out for 48 h at 37 °C, then the plates were examined under the inverted microscope and proceeded for the MTT assay. The MTT method of monitoring in vitro cytotoxicity is well suited for use with multiwell plates. For best results, cells in the log phase of growth should be employed and final cell number should not exceed 10^6 cells/cm^2. Each test should include a blank containing complete medium without cells. Cell cultures were removed from the incubator into laminar flow hood. Each vial of MTT [M-5655] was reconstituted to be used with 3 ml of medium or balanced salt solution without phenol red and serum and the reconstituted MTT was added in an amount equal to 10% of the culture medium volume. Then the cultures were returned to the incubator for 2–4 h depending on the cell type and the maximum cell density. After the incubation period, the cultures were removed from incubator and the resulting formazan crystals were dissolved by adding an amount of MTT solvent (solubilisation solution) [M-8910] equal to the original culture medium volume. Gentle mixing in a gyratory shaker enhanced dissolution. Occasionally pipetting up and down [trituration] may be required to completely dissolve the MTT formazan crystals. The absorbance was measured at a wavelength of 450 nm using Bioline ELIZA reader. The background absorbance of the multiwell plates was measured at 690 nm and subtracted from the 450 nm measurement. The results are shown in Table 2 and graphically represented in Figure 5. […] The results in terms of IC50 in µM are given in Table 2 and represented graphically in Figure 5.

[4] = previous work, 2-aryl-2,3-dihydro derivatives ref 9, read-out: IC50 pim-1 inhibition

melting point [°C] | inhibition at 25 µM ([1]; pim-1 kinase, 25 µM) [%] | IC50 ([1]; pim-1 kinase) [nM] | SMILES | other results
– | – | – | O=C(O)c1ccc2c(c1)nc(Nc1cccc(Cl)c1)c1ccncc12 [CX-4595] | IC50 (pim-2): 186 nM; IC50 (pim-1; read-out: IC50 (pim-1)): 48 nM
255 to 256 | 83 | 960 | Cc1nc2sc3c(c2c(C)c1Br)NC(c1ccc(OCc2ccccc2)cc1)NC3=O (centres unmarked) [Compound 3a, 2-(4-(Benzyloxy)phenyl)-8-bromo-7,9-dimethyl-2,3-dihydropyrido[3′,2′:4,5]thieno[3,2-d]pyrimidin-4(1H)-one] | –
> 300 | 96 | 60 | Cc1nc2sc3c(c2c(C)c1Br)NC(c1ccc(Br)cc1)NC3=O (centres unmarked) [Compound 3b, 8-Bromo-2-(4-bromophenyl)-7,9-dimethyl-2,3-dihydropyrido[3′,2′:4,5]thieno[3,2-d]pyrimidin-4(1H)-one] | IC50 ([2]; Homo sapiens, HCT-116, 48 h): 2740 ± 150 nM; IC50 ([3]; Homo sapiens, MCF7, 48 h): 1840 ± 120 nM
> 300 | 92 | 140 | Cc1nc2sc3c(c2c(C)c1Br)NC(c1ccc(Cl)cc1)NC3=O (centres unmarked) [Compound 3c, 8-Bromo-2-(4-chlorophenyl)-7,9-dimethyl-2,3-dihydropyrido[3′,2′:4,5]thieno[3,2-d]pyrimidin-4(1H)-one] | IC50 ([3]; Homo sapiens, MCF7, 48 h): < 500 nM; IC50 [3]: 390 ± 70 nM
290 to 291 | 81 | 1340 | Cc1nc2sc3c(c2c(C)c1Br)NC(c1ccc(O)cc1O)NC3=O (centres unmarked) [Compound 3d, 8-Bromo-2-(2,4-dihydroxyphenyl)-7,9-dimethyl-2,3-dihydropyrido[3′,2′:4,5]thieno[3,2-d]pyrimidin-4(1H)-one] | –
– | 93 | 60 | Cc1nc2sc3c(c2c(C)c1Br)NC(c1ccc(O)c(O)c1)NC3=O (centres unmarked) [Compound 3e, 8-Bromo-2-(3,4-dihydroxyphenyl)-7,9-dimethyl-2,3-dihydropyrido[3′,2′:4,5]thieno[3,2-d]pyrimidin-4(1H)-one] | –
> 300 | 89 | 1000 | Cc1nc2sc3c(c2c(C)c1Br)NC(c1ccc(F)cc1)NC3=O (centres unmarked) [Compound 3f, 8-Bromo-2-(4-fluorophenyl)-7,9-dimethyl-2,3-dihydropyrido[3′,2′:4,5]thieno[3,2-d]pyrimidin-4(1H)-one] | –
– | 92 | 80 | COc1cc(C2NC(=O)c3sc4nc(C)c(Br)c(C)c4c3N2)ccc1O (centres unmarked) [Compound 3g, 8-Bromo-2-(4-hydroxy-3-methoxyphenyl)-7,9-dimethyl-2,3-dihydropyrido[3′,2′:4,5]thieno[3,2-d]pyrimidin-4(1H)-one] | IC50 ([3]; Homo sapiens, MCF7, 48 h): < 500 nM; IC50 [3]: 460 ± 90 nM
> 300 | 84 | 1170 | COc1ccc(C2NC(=O)c3sc4nc(C)c(Br)c(C)c4c3N2)cc1 (centres unmarked) [Compound 3h, 8-Bromo-2-(4-methoxyphenyl)-7,9-dimethyl-2,3-dihydropyrido[3′,2′:4,5]thieno[3,2-d]pyrimidin-4(1H)-one] | –
> 300 | 81 | 930 | COc1cc(C2NC(=O)c3sc4nc(C)c(Br)c(C)c4c3N2)cc(OC)c1OC (centres unmarked) [Compound 3i, 8-Bromo-7,9-dimethyl-2-(3,4,5-trimethoxyphenyl)-2,3-dihydropyrido[3′,2′:4,5]thieno[3,2-d]pyrimidin-4(1H)-one] | –
280 to 281 | 95 | 100 | Cc1nc2sc3c(c2c(C)c1Br)NC(c1ccsc1)NC3=O (centres unmarked) [Compound 3j, 8-Bromo-7,9-dimethyl-2-(thiophen-3-yl)-2,3-dihydropyrido[3′,2′:4,5]thieno[3,2-d]pyrimidin-4(1H)-one] | IC50 ([2]; Homo sapiens, HCT-116, 48 h): 4820 ± 210 nM; IC50 ([3]; Homo sapiens, MCF7, 48 h): < 500 nM; IC50 [3]: 310 ± 20 nM
277 to 278 | 81 | 1080 | Cc1nc2sc3c(ncn4ncnc34)c2c(C)c1Br [Compound 6, 8-bromo-7,9-dimethylpyrido[3′,2′:4,5]thieno[2,3-e][1,2,4]triazolo[1,5-c]pyrimidine] | –
– | 76 | 1760 | Cc1nc2c3sc4nc(C)c(Br)c(C)c4c3ncn2n1 [Compound 7a, 8-Bromo-2,7,9-trimethylpyrido[3′,2′:4,5]thieno[2,3-e][1,2,4]triazolo[1,5-c]pyrimidine] | –
199 to 200 | 93 | 80 | Cc1nc2sc3c(ncn4nc(C(F)(F)F)nc34)c2c(C)c1Br [Compound 7b, 8-Bromo-7,9-dimethyl-2-(trifluoromethyl)pyrido[3′,2′:4,5]thieno[2,3-e][1,2,4]triazolo[1,5-c]pyrimidine] | IC50 [2]: 650 ± 40 nM; IC50 ([2]; Homo sapiens, HCT-116, 48 h): < 1000 nM; IC50 ([3]; Homo sapiens, MCF7, 48 h): 4620 ± 140 nM
198 to 199 | 95 | 100 | CCOC(=O)Cc1nc2c3sc4nc(C)c(Br)c(C)c4c3ncn2n1 [Compound 8, ethyl 2-(8-bromo-7,9-dimethylpyrido[3′,2′:4,5]thieno[2,3-e][1,2,4]triazolo[1,5-c]pyrimidin-2-yl)acetate] | IC50 ([3]; Homo sapiens, MCF7, 48 h): < 500 nM; IC50 [3]: 410 ± 30 nM
> 300 | 88 | 520 | Cc1nc2sc3c(=N)n(N=Cc4ccc(Br)cc4)cnc3c2c(C)c1Br [Compound 9a, 8-Bromo-N-(4-bromobenzylidene)-4-imino-7,9-dimethylpyrido[3′,2′:4,5]thieno[3,2-d]pyrimidin-3(4H)-amine] | –
> 300 | 89 | 220 | Cc1nc2sc3c(=N)n(N=Cc4ccccc4C(F)(F)F)cnc3c2c(C)c1Br [Compound 9b, 8-Bromo-4-imino-7,9-dimethyl-N-(2-(trifluoromethyl)benzylidene)pyrido[3′,2′:4,5]thieno[3,2-d]pyrimidin-3(4H)-amine] | –
– | – | – | CN[C@@H]1C[C@H]2O[C@@](C)([C@@H]1OC)n1c3ccccc3c3c4c(c5c6ccccc6n2c5c31)C(=O)NC4 [Staurosporine, reference compound] | inhibition at 25 µM [1]: 94%
– | – | – | Cc1nc2sc3c(c2c(C)c1Br)NC(c1ccccc1Cl)NC3=O (centres unmarked) [Va] | IC50 (pim-1; [4]): 1180 nM
– | – | – | Cc1nc2sc3c(c2c(C)c1Br)NC(c1ccccc1O)NC3=O (centres unmarked) [Vb] | IC50 (pim-1; [4]): 1380 nM
– | – | – | Cc1nc2sc3c(c2c(C)c1Br)NC(c1ccccc1C(F)(F)F)NC3=O (centres unmarked) [Vc] | IC50 (pim-1; [4]): 1970 nM
